# Reference: ChEMBL document CHEMBL1201862, “PubChem BioAssay data set” (2004)
# Activity calls are given as the source filed them.
# Tests used:
# Cytochrome P450 2C19 = Cytochrome P450 2C19 (Homo sapiens, UniProt P33261); assay: Cytochrome panel assay with activity outcomes. Panel member name: p450-cyp2c19 Compounds with AC50 equal or less than 10 uM are considered active; type: functional
# [1] = target: T1, Heat shock factor protein 1 (Mus musculus, UniProt P38532); assay: decrease of HSF1-responsive luciferase luminescence – cell-based, NIH3T3, dose retest, confirmation (AID 2382); type: functional;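 note: NIH3T3 fibroblasts with HSF1-driven luciferase reporter stressed by proteasome inhibitor MG132; luminescence from HSF1-driven luciferase expression after 8 hours of MG132 stress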
# T1 sequence (P38532 whole entry): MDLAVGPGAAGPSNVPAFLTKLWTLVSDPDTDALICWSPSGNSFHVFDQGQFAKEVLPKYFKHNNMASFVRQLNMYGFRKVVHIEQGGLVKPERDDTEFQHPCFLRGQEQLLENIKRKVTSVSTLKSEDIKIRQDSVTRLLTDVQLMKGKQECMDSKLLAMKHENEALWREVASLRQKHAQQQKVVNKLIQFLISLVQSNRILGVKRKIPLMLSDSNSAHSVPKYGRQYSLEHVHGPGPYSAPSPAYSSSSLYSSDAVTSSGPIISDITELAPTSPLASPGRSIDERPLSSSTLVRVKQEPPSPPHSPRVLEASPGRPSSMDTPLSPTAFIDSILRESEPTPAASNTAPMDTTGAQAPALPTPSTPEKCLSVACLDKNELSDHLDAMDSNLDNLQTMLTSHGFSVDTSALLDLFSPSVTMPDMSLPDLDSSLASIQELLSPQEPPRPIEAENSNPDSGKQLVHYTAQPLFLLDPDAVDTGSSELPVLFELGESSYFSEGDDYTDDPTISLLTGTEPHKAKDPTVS
# [2] = Trypanosoma cruzi growth suppression in host cells – NIH3T3 host cells, beta-gal luminescence, confirmation (AID 2044); type: functional, cell-based;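 note: intracellular parasites grown in NIH/3T3 mouse fibroblasts as host cells; luminescent beta-galactosidase reporter signal from transgenic T. cruzi replicating inside host cells; inhibitors lower the luminescence signal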
# [3] = NIH3T3 cell viability loss – ATP luminescence, mouse fibroblasts, counter-screen, dose response (AID 2010); type: functional, cell-based;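 note: cells exposed to compound for about 90 hours before reading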
# Cytochrome P450 2C19, sequence (P33261 whole entry): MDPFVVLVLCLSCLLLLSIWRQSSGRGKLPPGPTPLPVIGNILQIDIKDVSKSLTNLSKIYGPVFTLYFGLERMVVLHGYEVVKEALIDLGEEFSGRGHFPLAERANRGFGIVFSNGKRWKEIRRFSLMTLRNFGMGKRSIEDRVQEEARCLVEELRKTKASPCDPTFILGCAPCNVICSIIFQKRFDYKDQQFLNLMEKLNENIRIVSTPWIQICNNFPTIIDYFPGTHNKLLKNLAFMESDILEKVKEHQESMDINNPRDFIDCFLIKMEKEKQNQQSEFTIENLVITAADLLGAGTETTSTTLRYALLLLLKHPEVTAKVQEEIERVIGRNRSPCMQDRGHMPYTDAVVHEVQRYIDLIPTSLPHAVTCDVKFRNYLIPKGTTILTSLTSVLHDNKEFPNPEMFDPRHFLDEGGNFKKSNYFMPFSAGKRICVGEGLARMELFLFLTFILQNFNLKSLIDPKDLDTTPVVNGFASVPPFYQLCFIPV
EC50 [1],SMILES,EC50 [2],EC50 [3],further results
–,Nc1c(S(N)(=O)=O)cc(S(N)(=O)=O)cc1S(N)(=O)=O,–,–,AC50 (Cytochrome P450 2C19): inconclusive
> 195 µM (not active),CCOc1ccc(CNCCCSc2ncccn2)cc1OC,–,–,–
> 195 µM (not active),CC(=O)C1=C(O)C(=O)N(c2ccc(C)cc2)C1c1ccccn1 (stereo not given),–,–,–
> 195 µM (not active),O=C(NCc1ccncc1)c1ccc(Cl)c(S(=O)(=O)N2CCOCC2)c1,–,–,–
> 195 µM (not active),CCCC(=O)Nc1ccc(Cl)c(NC(=O)c2cccnc2)c1,–,–,–
86.1 µM (active),CCOC(=O)Cc1cc(O)c2cc(C)ccc2n1,–,–,–
> 195 µM (not active),CCCCOc1ccc(C2C(=O)N(C3CCCCC3)CC(=O)N2CC2CCCO2)cc1 (stereo not given),–,–,–
> 195 µM (not active),COc1ccc(N2CC(C(=O)Nc3nnc(C4CCCCC4)s3)CC2=O)cc1 (stereo not given),–,–,–
–,CCOc1cc(C)c(Cl)cc1S(=O)(=O)n1ccnc1,1.83 µM (active),21.4 µM (active),–
–,CCCc1cc(=O)[nH]c(=S)[nH]1 [PROPYLTHIOURACIL],–,–,AC50 (Cytochrome P450 2C19): inconclusive
–,CCCCSc1nc2ccc(Nc3nc(N4CCOCC4)nc(N4CCOCC4)n3)cc2s1,1.45 µM (active),> 60 µM (not active),–
> 195 µM (not active),CCN(Cc1ccc2c(c1)OCO2)C(=O)/C=C/c1cccc(Br)c1,–,–,–
> 195 µM (not active),Cc1cc(=O)[nH]c2c1c(=O)[nH]n2C1CC(C)N(C)CC1C (stereo not given),–,–,–
–,CC1CCCCN1C(=O)C(=O)c1cn(CC(=O)N2CCCCCC2)c2ccccc12 (stereo not given),1.49 µM (active),> 60 µM (not active),–
–,O=C(CCN1CCN(c2ccccc2)CC1)c1ccc(Br)cc1,1.85 µM (active),> 60 µM (not active),–
60.1 µM (active),COc1ccc(C(=O)C2CCCN(Cc3ccc(NC(C)=O)cc3)C2)cc1OC (stereo not given),–,–,–
–,O=C(c1cccc(F)c1)N1CCC[C@@]2(CCN(c3ccncc3)C2)C1,–,–,AC50 (Cytochrome P450 2C19; read-out: AC50): 2.51 µM (inconclusive)
–,CC1=C(C(=O)N2CCc3ccccc32)C2(CCC(C)CC2)OC1=O (stereo not given),2.67 µM (active),> 60 µM (not active),–
–,Cc1occc1C(=O)N/N=C/c1ccc(-c2cccc([N+](=O)[O-])c2)o1,2.05 µM (active),> 60 µM (not active),–
–,Clc1ccc(SCCOCCN2CCOCC2)cc1,0.803 µM (active),> 60 µM (not active),–
> 195 µM (not active),CCOC(=O)c1c(C)[nH]c(C(=O)COC(=O)C2=NNC(=O)CC2)c1C,–,–,–
–,Cc1nc2cnc(Oc3cccc(Cl)c3)nc2n(C2CC2)c1=O,–,–,AC50 (Cytochrome P450 2C19; read-out: AC50): 31.6 µM (inconclusive)
–,CCCCCCCC(=O)Nc1cc(C(=O)NCCC)ccc1N1CCC2(CC1)CC(c1ccccc1)=NO2,1.76 µM (active),> 60 µM (not active),–
> 195 µM (not active),c1ccc(Cc2nc3ccccc3o2)cc1,–,–,–
> 195 µM (not active),CC(NC(=O)c1ccc2c(c1)OCO2)c1ccccc1 (stereo not given),–,–,–
–,CC1(C)C2([N+](=O)[O-])CN3CC1([N+](=O)[O-])CN(C2)C3c1ccccc1 (stereo not given),–,–,AC50 (Cytochrome P450 2C19; read-out: AC50): 0.355 µM (inconclusive)

EC50 [1],SMILES,EC50 [2],EC50 [3],further results
> 195 µM (not active),O=[N+]([O-])c1ccc(/N=C/c2sc3ccccc3c2O)cc1,–,–,–
> 195 µM (not active),CCN1CCN(C(=O)C2CCN(C(=O)c3cc4sccc4n3CC)CC2)CC1,–,–,–
> 195 µM (not active),Cn1c(-c2nonc2N)nc2ccccc21,–,–,–
–,Cc1cc(N2CCN(C)CC2)nc2ccc(NC(=O)c3ccccc3F)cc12,1.02 µM (active),> 60 µM (not active),–
> 195 µM (not active),CSc1nsc(SCC(=O)NCc2ccc(C)cc2)n1,–,–,–
–,COc1ccc(OC)c(CNC(=O)CCNC(=O)Cn2ccc3ccccc3c2=O)c1,–,–,AC50 (Cytochrome P450 2C19; read-out: AC50): 31.6 µM (inconclusive)
–,Cc1ccc2sc(N(CCCN(C)C)C(=O)c3ccc(S(=O)(=O)N(C)Cc4ccccc4)cc3)nc2c1C,0.451 µM (active),11.7 µM (active),–
> 195 µM (not active),COc1cc(OC)cc(C(=O)N2CCN(S(C)(=O)=O)CC2)c1,–,–,–
> 195 µM (not active),CN(Cc1ccccc1)C(=O)CCS(=O)(=O)c1ccc2c(c1)n(C)c(=O)c(=O)n2C,–,–,–
0.249 µM (active),COC(=O)c1c[nH]nc1N=C(S)Nc1ccc(Cl)c(Cl)c1,–,–,–
> 195 µM (not active),CCC(Sc1nc2cc(OC)c(OC)cc2c(=O)n1CCc1ccc(S(N)(=O)=O)cc1)C(=O)NCCOC (stereo not given),–,–,–
–,FC(F)(F)c1cccc(-c2cc(C3CCNCC3)n[nH]2)c1,3.5 µM (active),8.6 µM (active),–
> 195 µM (not active),CCCC(C)NC(=O)C1c2ccccc2Oc2ccccc21 (stereo not given),–,–,–
–,C/C(=C\C=C/[C@@H](C)C(=O)O)[C@H]1CN[C@H](C(=O)O)[C@@H]1CC(=O)O,–,–,AC50 (Cytochrome P450 2C19): inconclusive
> 195 µM (not active),Cc1nnc(N2C(=O)c3cccc4cccc(c34)C2=O)s1,–,–,–
> 195 µM (not active),CCCC1c2ccc(C)n2CCN1C(=O)Nc1ccc(F)cc1 (stereo not given),–,–,–
> 195 µM (not active),CC1=C(C(=O)Nc2ccccc2)C(c2cc(CN3CCOCC3)cs2)C2=C(O)CCCC2=N1 (stereo not given),–,–,–
–,O=C(Nc1ccncc1)c1ccc(-c2ccccc2)cc1,1.44 µM (active),> 60 µM (inconclusive),–
–,Cc1ccc(C(=O)NC(=S)Nc2ccc(Oc3ccc(Cl)cc3)cc2)cc1,2.09 µM (active),> 60 µM (inconclusive),–
> 195 µM (not active),CC(C)CCc1c(O)nc(SCC(=O)N2CCCCCC2)nc1O,–,–,–
> 195 µM (not active),Nc1nonc1-c1noc(-c2ccccc2Br)n1,–,–,–
> 195 µM (not active),CC(=O)Nc1cccc(C(=O)/C=C/c2ccc(C)cc2)c1,–,–,–
> 195 µM (not active),CCc1ccccc1NC(=O)CSc1nnc(-c2ccncc2)o1,–,–,–
> 195 µM (not active),CCn1c(=O)n(CC)c2cc(N3CCCC3)c(NC(=O)c3ccc(OC)c(Br)c3)cc21,–,–,–
–,C[N+](C)(C)c1ncnc2c1ncn2[C@@H]1CCCCO1,–,–,AC50 (Cytochrome P450 2C19): inconclusive
> 195 µM (not active),O=C(Nc1ccc(F)cc1)c1ccc(O)nn1,–,–,–

EC50 [1],SMILES,EC50 [2],EC50 [3],further results
> 195 µM (not active),CCCC1=Nc2cc(C(=O)NCCCN3CCN(C)CC3)ccc2Sc2ccccc21,–,–,–
–,Cc1cc(C(=O)Nc2c(C)n(C)n(-c3ccccc3)c2=O)c2ccccc2n1,–,–,AC50 (Cytochrome P450 2C19): inconclusive
–,CCOc1ccc2nc(O)c(CN(Cc3cccs3)Cc3nnnn3C(C)(C)CC)cc2c1,2.56 µM (active),> 30 µM (not active),–
> 195 µM (not active),Cn1c(C(C#N)C(=O)c2sc3ccccc3c2Cl)nc2ccccc21 (stereo not given),–,–,–
–,CCOC(=O)c1cc(-c2ccccc2)sc1NC(=O)CN1C(=O)NC(CC)(c2ccc(F)cc2)C1=O (stereo not given),2.21 µM (active),> 60 µM (not active),–
> 195 µM (not active),O=C(N/N=C/c1ccc(Br)o1)c1ccc2c(c1)OCCO2,–,–,–
> 195 µM (not active),COc1ccc(Nc2nc(C)cc(C)c2C#N)cc1OC,–,–,–
–,CSC(=N)NCCC[C@@H](N)C(=O)O [S-METHYL-D-THIOCITRULLINE],–,–,AC50 (Cytochrome P450 2C19): inconclusive
–,CC(C)CCNC(=O)CN=C(S)N(Cc1ccccc1)Cc1cccnc1,0.65 µM (active),> 60 µM (not active),–
–,CCCCSc1nc2sc3c(c2c(=O)n1-c1ccccc1)CCN(C)C3,0.143 µM (active),> 60 µM (not active),–
–,Cc1ccsc1-c1nc(-c2ccccc2)c(-c2ccccc2)[nH]1,–,–,AC50 (Cytochrome P450 2C19; read-out: AC50): 10 µM (inconclusive)
–,Cc1ccc(N/C(SCc2ccccc2C)=C(/C#N)C(=O)NCc2ccco2)cc1C,1.3 µM (active),> 60 µM (not active),–
–,O=[N+]([O-])c1ccc(S(=O)(=O)N2CCN(Cc3c[nH]c4ccccc34)CC2)cc1,1.31 µM (active),> 60 µM (not active),–
> 195 µM (not active),Nc1ccc2oc(C3CCCCC3)nc2c1,–,–,–
32.2 µM (active),CCC(=O)N1C(C(=O)N2CCCC2)CSC1c1ccc(OC)cc1 (stereo not given),–,–,–
> 195 µM (not active),COc1ccccc1-n1ccnc(SCC(=O)NCc2ccccc2)c1=O,–,–,–
–,COc1ccc(Cc2nc3c4c(ncn3n2)Oc2ccc3ccccc3c2C4c2ccc(OC)c(OC)c2)cc1 (stereo not given),1.52 µM (active),> 60 µM (inconclusive),–
–,Cc1cccc2cc(CN(Cc3ccc(F)cc3)Cc3nnnn3C3CCCC3)c(O)nc12,2.38 µM (active),28.9 µM (active),–
–,O=C(CCc1nc(O)c2ccccc2n1)N1CCN(C/C=C/c2ccccc2)CC1,0.276 µM (active),> 30 µM (not active),–
> 195 µM (not active),CCCS(=O)(=O)N1CCc2cc(OC)c(OC)cc2C1,–,–,–
> 195 µM (not active),Cc1ccc(C)c(N2CCN(CCN3CCCCC3)CC2)c1,–,–,–
–,COc1ccc(CCN=C(S)NCc2ccc(Cl)c(Cl)c2)cc1OC,2.05 µM (active),> 60 µM (inconclusive),–
–,COc1ccc(-c2cc(C(=O)N3CCN(c4cccc(C)c4C)CC3)c3ccccc3n2)cc1OC,2.93 µM (active),> 60 µM (not active),–
> 195 µM (not active),O=C(Nc1ccc(-n2ccnc2P(=O)(O)c2ccccc2)cc1)c1ccccc1Cl,–,–,–
